One data set concerns 5HT2a. To be noted: rodents; cited from earlier work.
In another data set the test system is platelets. Nature of the data set: ADP-mediated platelet activation/aggregation. It counts as cell-based.
The subject of a further data set is THP-1 cells. Put plainly: MCP-1 induced THP-1 cell migration, Transwell assay. It counts as cell-based, human. To be noted: for Max effect (maximum inhibition): Table 2, highest dose tested (1-10 μM); for Maximal inhibition of leukocyte migration: maximal / very high doses, Example 6. The procedure:
Leukocyte migration was measured using the 96-well format micro Transwell® assay system from Neuroprobe (Gaithersburg, Md., USA). In principle, this assay consists of two chambers separated by a porous membrane. The chemoattractant is placed in the lower compartment and the cells are placed in the upper compartment.
The method was performed essentially as previously described (Reckless & Grainger (1999) Biochem. J. 340:803-11).
First, the cell suspension to be placed in the upper compartment was prepared. The THP-1 cells were pelleted by centrifugation (770×g; 4 mins) and washed with Geys Balanced Salt Solution with 1 mg/ml BSA (GBSS+BSA). This wash was then repeated, and the cells re-pelleted before being resuspended in a small volume of GBSS+BSA for counting, for example using a standard haemocytometer.
The volume of GBSS+BSA was then adjusted depending on the number of cells present so that the cells were at final density of 4.45×10^6 cells per ml of GBSS+BSA. This ensured that there were 100,000 THP-1 cells in each 25 μl of the solution to be placed in the upper chamber of the plate.
The suspension of THP-1 cells at 4.45×10^6 cells/ml was divided into three pots. […] To the second pot, the BSCI was added at the same concentration as in the first pot, but additionally the sstr2 antagonist was also added (for example BIM 23454 [Tulipano et al. (2002) 143:1218-24] or BIM 23627 were added at 66 nM final concentration from a stock solution in GBSS). To the third pot, GBSS+BSA plus vehicle as appropriate was added so that the volumes in three pots are equal, acting as a control.
Next, the chemoattractant solution to be placed in the lower compartment was prepared. MCP-1 was diluted in GBSS+BSA to give a final concentration of 25 ng/ml (after all additions). Note that, as recommended by Frow et al (Med. Res. Rev. 24:276-98) this is the concentration of MCP-1 which induces maximal migration in this system. This solution was divided into three pots, as for the cell suspension. To one pot, the BSCI was added to the same final concentration as was added to the cell suspension, in the second pot the BSCI and the sstr2 antagonist were both added at the same concentration as previously added to the cell suspension, while to the remaining pot GBSS+BSA plus vehicle as appropriate was added so that the volumes in the three pots were equal.
Once the chemoattractant solutions for the lower wells and cell solutions for the upper chambers were prepared, the migration chamber was assembled. 29 μl of the appropriate chemoattractant solution was placed into the lower well of the chamber. Assays were performed with at least triplicate determinations of each condition. Once all the lower chambers were filled, the porous membrane was applied to the chamber in accordance with the manufacturer's instructions. Finally, 25 μl of the appropriate cell solution was applied to each upper chamber. A plastic lid was placed over the entire apparatus to prevent evaporation.
The assembled chamber was incubated at 37° C., 5% CO2, for 2 hours.
At the end of the incubation, the liquid cell suspension was gently removed from the upper chamber, 20 μl of ice-cold 20 mM EDTA in PBS was added to the upper chamber, and the apparatus was incubated at 4° C. for 15 mins. This procedure caused any cells adhering to the underside of the membrane to fall into the lower chamber.
After this incubation the filter was carefully flushed with GBSS+BSA to wash off the EDTA, and then the filter was removed.
The number of cells migrated into the lower chamber under each condition can then be determined by a number of methods, including direct counting, labelling with fluorescent or radioactive markers or through the use of a vital dye. Typically, we utilised the vital dye MTT.

For another data set, the target named is T1, sstr2 (Homo sapiens, UniProt P30874).
T1 construct: with 1×10^6 THP-1 cells in Gey's Balanced Salt Solution; endogenous in cells; host or cells: THP-1 cells (whole cells, 4° C.)
Put plainly: Equilibrium binding of [3H]-BN83250 to THP-1 cells. The procedure:
Methods: [^3H]-BN83250 was synthesesized from (S,E)-3-(2′,2′-dimethyldodec-4′-enoylamino)-caprolactam by catalytic hydrogenation using tritium gas over a palladium catalyst (CRB Ltd, Cleveland, UK), yielding the tritiated product at a concentration of […] in ethanol with a specific activity of 220 Ci/mmol. The (S,E)-3-(2′,2′-dimethyldodec-4′-enoylamino)-caprolactam was prepared as follows: (S,S)-3-amino-caprolactam hydro-pyrrolidine-5-carboxylate (10 mmol) and Na2CO3 (30 mmol) in water (30 ml) were added to a solution of 2,2-dimethyl-dodec-4-enoyl chloride (10 mmol) in dichloromethane (30 ml) at ambient temperature and the reaction was stirred for 12 hours. The organic layer was then separated and the aqueous phase was extracted with additional dichloromethane (2×25 ml). The combined organic layers were dried over Na2CO3 and reduced in vacuo. The residue was purified by silica column chromatography (1:1 EtOAc:hexanes to EtOAc) to give […]-3-(2′,2′-dimethyl-dodec-4′-enoyl)amino-caprolactam as a colourless oil (2.12 g, 63%). The radiolabelled compound was stored in the dark at 4° C. until required. Prior to use the specific activity was adjusted by addition of unlabelled BN83250.
For the analysis of binding, individual reactions were set up (in triplicate for each condition), with 1×10^6 THP-1 cells in Gey's Balanced Salt Solution, 10 nM [^3H]-BN83250 (at 50 Ci/mmol) and various concentrations of (S)-3(2′2′-dimethylpropionoylamino)-tetrahydropyridin-2-one (10 pM to 10 μM). Excess (100 μM) unlabelled BN83250 was used to determine the level of non-specific binding. After 2 hours at 4° C. (conditions previously shown to achieve equilibrium binding, and which prevent uptake of the radioligand that would result in an over-estimate of binding) excess label was washed away by centrifugation (3 washes with 5 ml of Gey's Balanced Salt Solution) and the bound radioactivity was determined by scintillation counting of the solubilised cell pellet.

Another data set relates to Jurkat T cells. Put plainly: SDF-1α induced migration of parental Jurkat T cells. It counts as cell-based, human. The procedure:
Results: The level of the SDF-1α, receptor CXCR4 was similar on Jurkat-D3B and the parental Jurkat T cell line. Furthermore, the Jurkat-D3B cells responded to SDF-1α in a Transwell® chemotaxis assay (see Example 1 for the methodology employed) over a similar concentration range to the parental cell line.
Jurkat T cells and Jurkat-D3B cells were induced to migrate in response to 100 ng/ml SDF-1α (R&D systems; the concentration of SDF-1α which induced maximal cell migration in both lines). The BSCI BN83250 was then added at various concentrations between 0 nM and 1000 nM (each in triplicate) to both the upper and lower compartments (at the same concentration in each compartment, so as not to create a gradient of BSCI concentration). DMSO (1% final concentration) was used as the vehicle, and was present in all wells at equal concentration.

The test system of a further data set is fetal rat pituicytes. Put plainly: Rat pituicyte GH suppression assay. It counts as cell-based. To be noted: Table 3. An excerpt:
(§1) Two different assays for “classical” sstr2 functions were adopted: (1) cultured foetal rat pituitary cells secreted growth hormone which is inhibited by sstr2 agonists in a dose-dependent fashion and (2) selected glucose-sensitive sub-clones of the human Panc-1 cell line secrete insulin which is inhibited by sstr2 agonists in a dose-dependent fashion.
Methods: Cultures of fetal rat pituicytes were established exactly as previously described (Murray et al. (2004) J. Clin. Endocrinol. Metab. 89:3027-32) by enzymatic dispersion. After 48 hrs in low glucose DMEM plus 10% FCS, cells in 48 well plates (5×10^4 cells per well) were washed for 4 hrs in serum-free DMEM and then incubated with test agents at various concentrations for a further 24 hrs in serum-free DMEM. At the end of this period, the conditioned medium was harvested, any cell debris removed by centrifugation and assayed for GH using a commercially available ELISA (Linco; cat# EZRMGH-45K) in accordance with the manufacturer's instructions.
(§2) Results were reported as the mean±SD, expressed as the fold change from cells in the presence of vehicle only.

In a further data set the test system is Panc-2H4 cells. Nature of the data set: Human Panc-2H4 insulin suppression assay. Type of data set: cell-based.
Source text: as §1
Glucose-sensitive sub-clones of the human Panc-1, a cell line derived from a pleiomorphic epithelioid carcinoma of the exocrine pancreas, were obtained essentially as described by Hamil et al. (2008) Biomed. Sci. Instrum. 44:441-6. Briefly, Panc-1 cells were subcultured in 24 well plates, and the medium was supplemented with an additional 5% glucose. […] The resulting sub-lines were then tested for glucose sensitivity by preparing wells of a 96-well plate (5×10^4 cells per well) which were then exposed to cultured medium containing a range of glucose concentrations (low glucose DMEM, DMEM, DMEM+1% glucose, DMEM+2.5% glucose and DMEM+5% glucose). After 24 hrs incubation, the conditioned medium was collected and assayed for insulin secretion by ELISA (Linco; cat# EZHI-14K) in accordance with the manufacturer's instructions.
Further 96 well plates were prepared using Panc-2H4 (5×10^4 cells per well) in DMEM. After 24 hrs, the medium was switched to DMEM+5% glucose containing various test agents at various concentrations (triplicate wells per condition). After a further 24 hrs, the conditioned medium was harvested and the concentration of insulin was determined by ELISA as described above.
as §2

Read-outs that look alike come from different tables or passages of the source. No end group written: not given here.

T1 sequence (P30874 whole entry): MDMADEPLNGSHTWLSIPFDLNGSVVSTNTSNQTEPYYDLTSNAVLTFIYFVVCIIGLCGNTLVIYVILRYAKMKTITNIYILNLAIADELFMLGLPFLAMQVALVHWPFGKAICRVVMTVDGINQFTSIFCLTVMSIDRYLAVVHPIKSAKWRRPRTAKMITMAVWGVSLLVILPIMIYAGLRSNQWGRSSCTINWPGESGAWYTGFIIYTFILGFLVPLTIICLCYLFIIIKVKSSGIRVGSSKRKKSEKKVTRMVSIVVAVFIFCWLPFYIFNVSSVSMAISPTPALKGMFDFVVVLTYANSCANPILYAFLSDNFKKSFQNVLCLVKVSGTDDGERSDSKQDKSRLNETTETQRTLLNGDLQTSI

As to `CCN(CC)C(=O)[C@@H]1C=C2c3cccc4[nH]cc(c34)C[C@H]2N(C)C1` [LSD], the “Head twitching by classical 5HT2a agonists” value (shortened to “Head twitching”) in the data set on 5HT2a was “induce this classical effect”.
Turning to `C[C@@H](N)Cc1c2ccoc2c(Br)c2ccoc12` [Bromo-DragonFLY], the “Head twitching” value in the data set with 5HT2a is “induce this classical effect”.
On to `Clc1cccc(Cl)c1N=C1NCCN1` [clonidine], for which the “Effect on ADP-mediated platelet activation/aggregation” value in the data set on platelets was “significant potentiate ADP-mediated platelet aggregation”.
Regarding “Cortistatin: more recently described somatostatin analog (DRMPCRNFFWKTFSSCK; ends and bridges not checked; cysteine pairing not given here; UniProt O00230 89-105, looked up)”, in the data set with THP-1 cells, the “Max effect (maximum inhibition)” value is given as 40-60% and the “Maximal inhibition of leukocyte migration” value is around 50%.
Take `CC1(C(=O)N[C@H]2CCCCNC2=O)CCCCC1` [(S)-3-(1′-methylcyclohexyl-1′-carbonylamino)-caprolactam]: on sstr2, the “Competition with BN83250 binding to sstr2, in words” value is “compete with BN83250 binding to sstr2 to a similar extent”.
Consider `COC(=O)[C@@H]1[C@H]2C[C@H]3c4[nH]c5ccccc5c4CCN3C[C@@H]2CC[C@@H]1O` [yohimbine], for which the “Inhibition of SDF-1α induced migration of Jurkat T cells, in words” value in the data set on Jurkat T cells is recorded as “neither agent inhibits”. For the same compound, the “Effect on ADP-mediated platelet activation/aggregation” value with platelets is recorded as “significant potentiate ADP-mediated platelet aggregation”.
Consider `C[C@@H](c1c[nH]c2ccccc12)[C@@H](NC(=O)N1CCC(n2c(=O)[nH]c3ccccc32)CC1)C(=O)NC[C@@H]1CCC[C@H](CN)C1` [L-779,976], for which, in the data set on THP-1 cells (Table 3), the “Human chemokine-induced THP-1 migration assay Max effect” value worked out at 65%. Besides, the “Chemokine-induced THP-1 cell migration assay (“BSCI” target) Max Effect” value in the data set on THP-1 cells (Table 4) and in the data set with THP-1 cells (Table 5) was 65% in each case. Further, the EC50 in the data set with fetal rat pituicytes (read-out: Rat pituicyte GH suppression assay ED50) came out at 2.9 nM; with Panc-2H4 cells (Table 3, read-out: Human Panc-2H4 insulin suppression assay ED50), 17 nM; in the data set on Panc-2H4 cells (Table 4, 0.01 nM to 1,000 nM, DMSO 1%, read-out: Panc-2H4 insulin suppression assay (“classical” target) ED50), 17 nM; in the data set on Panc-2H4 cells (Table 5, read-out: Panc-2H4 insulin suppression assay (“classical” target) ED50), 17 nM. Also, the “Rat pituicyte GH suppression assay Max effect” value in the data set with fetal rat pituicytes (suppression compared to vehicle) is 55%. The “Human Panc-2H4 insulin suppression assay Max effect” value in the data set with Panc-2H4 cells (Table 3, suppression compared to vehicle) amounted to 40%. Besides, the “Panc-2H4 insulin suppression assay (“classical” target) Max Effect” value in the data set with Panc-2H4 cells (Table 4) and with Panc-2H4 cells (Table 5) was 40% each time.
On to “Sst-28: alternatively processed sst28 natural ligand”, for which, in the data set with THP-1 cells, the “Max effect (maximum inhibition)” value is 40-60% and the “Maximal inhibition of leukocyte migration” value is on record as 40-60%.
For `CC(C)C[C@H]1C(=O)N2CCC[C@H]2[C@]2(O)O[C@](NC(=O)[C@@H]3C[C@@H]4c5cccc6[nH]cc(c56)C[C@H]4N(C)C3)(C(C)C)C(=O)N12` [dihydroergocryptine], in the data set on platelets, the “Effect on ADP-mediated platelet activation/aggregation” value is “significant potentiate ADP-mediated platelet aggregation”.
With `COc1cc(CCN)cc(OC)c1OC` [mescaline], in the data set with 5HT2a, the “Head twitching” value is “induce this classical effect”.
As to `[3H]C(CCCCCCC)C([3H])CC(C)(C)C(=O)N[C@H]1CCCCNC1=O` (stereo partly drawn) [[^3H]-BN83250, 4′,5′-^3[H] (S)-3-(2′,2′-dimethyldodecanoyl)amino-caprolactam], the “Binding sites per cell” value at sstr2 (THP-1 cells) is 100,000 to 200,000 sites per cell. In addition, the Kd on sstr2 (THP-1 cells, 2 hours at 4° C., read-out: Affinity (Scatchard analysis)) was around 80 nM.
As for `CN(C)CCc1c[nH]c2cccc(O)c12` [psilocin], in the data set with 5HT2a, the “Head twitching” value is given as “induce this classical effect”.

Source of the values: patent US20120053076A1, “METHODS FOR IDENTIFICATION” (Cambridge Enterprise Limited, priority 2009, published 2012).
